Tests used:
GPR183 [1] = biological target: GPR183 (UniProt P32249); test: pEC50 of agonist-induced pathway activation (ebBRET)
GPR183 [2] = biological target: GPR183 (UniProt P32249); test: Emax (maximal agonist-induced change in ebBRET relative to vehicle) (% of vehicle response (amplitude of change)); higher = larger response (for Gs, larger decrease in membrane ebBRET, i.e. stronger Gs activation)
LPA1 = LPA1 (UniProt Q92633); test: pEC50 of agonist-induced pathway activation (ebBRET)
FP [3] = biological target: FP (UniProt P43088); test: as above
FP [4] = biological target: FP (UniProt P43088); test: Emax (maximal agonist-induced change in ebBRET relative to vehicle) (% of vehicle response (amplitude of change)); higher = larger response (for Gs, larger decrease in membrane ebBRET, i.e. stronger Gs activation)
EP1 = biological target: T1, EP1 (UniProt P34995); test: pEC50 of agonist-induced pathway activation (ebBRET)
T1 sequence (whole entry): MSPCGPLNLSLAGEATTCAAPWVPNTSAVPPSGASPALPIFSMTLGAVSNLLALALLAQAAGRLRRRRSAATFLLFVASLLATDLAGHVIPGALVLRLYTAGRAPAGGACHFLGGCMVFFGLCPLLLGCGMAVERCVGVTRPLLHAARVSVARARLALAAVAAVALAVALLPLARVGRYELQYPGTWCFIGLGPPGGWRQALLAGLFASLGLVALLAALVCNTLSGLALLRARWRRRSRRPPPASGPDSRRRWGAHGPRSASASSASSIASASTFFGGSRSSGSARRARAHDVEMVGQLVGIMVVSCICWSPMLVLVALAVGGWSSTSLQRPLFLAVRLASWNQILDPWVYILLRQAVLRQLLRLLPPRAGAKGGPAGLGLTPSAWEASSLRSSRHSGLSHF

PAR2 [5] = biological target: PAR2 (UniProt P55085); test: as above
PAR2 [6] = biological target: PAR2 (UniProt P55085); test: Emax (maximal agonist-induced change in ebBRET relative to vehicle) (% of vehicle response (amplitude of change)); higher = larger response (for Gs, larger decrease in membrane ebBRET, i.e. stronger Gs activation)
S1P1 [7] = biological target: S1P1 (UniProt P21453); test: pEC50 of agonist-induced pathway activation (ebBRET)
S1P1 [8] = biological target: S1P1 (UniProt P21453); test: Emax (maximal agonist-induced change in ebBRET relative to vehicle) (% of vehicle response (amplitude of change)); higher = larger response (for Gs, larger decrease in membrane ebBRET, i.e. stronger Gs activation)

Chain of PAR2 (P55085 whole entry): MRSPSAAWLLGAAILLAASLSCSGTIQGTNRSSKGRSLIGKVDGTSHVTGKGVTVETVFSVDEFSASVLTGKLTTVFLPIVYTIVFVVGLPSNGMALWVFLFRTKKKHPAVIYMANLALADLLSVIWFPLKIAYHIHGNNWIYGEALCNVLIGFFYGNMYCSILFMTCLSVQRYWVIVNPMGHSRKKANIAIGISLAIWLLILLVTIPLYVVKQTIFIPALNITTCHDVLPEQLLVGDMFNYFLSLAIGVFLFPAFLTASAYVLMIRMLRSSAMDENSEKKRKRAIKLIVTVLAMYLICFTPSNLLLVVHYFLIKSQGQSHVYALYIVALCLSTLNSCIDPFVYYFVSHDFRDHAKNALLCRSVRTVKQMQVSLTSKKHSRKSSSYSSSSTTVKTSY
Chain of LPA1 (Q92633 whole entry): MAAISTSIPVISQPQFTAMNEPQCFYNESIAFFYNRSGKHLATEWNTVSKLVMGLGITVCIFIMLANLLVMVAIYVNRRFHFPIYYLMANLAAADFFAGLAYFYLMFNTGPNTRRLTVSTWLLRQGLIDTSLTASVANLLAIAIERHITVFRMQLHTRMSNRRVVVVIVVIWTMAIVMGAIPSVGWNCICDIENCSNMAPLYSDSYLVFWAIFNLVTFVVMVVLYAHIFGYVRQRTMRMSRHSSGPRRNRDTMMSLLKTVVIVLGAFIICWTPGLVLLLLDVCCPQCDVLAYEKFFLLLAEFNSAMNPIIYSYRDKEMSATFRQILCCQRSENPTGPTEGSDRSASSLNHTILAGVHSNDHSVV
Chain of FP (P43088 whole entry): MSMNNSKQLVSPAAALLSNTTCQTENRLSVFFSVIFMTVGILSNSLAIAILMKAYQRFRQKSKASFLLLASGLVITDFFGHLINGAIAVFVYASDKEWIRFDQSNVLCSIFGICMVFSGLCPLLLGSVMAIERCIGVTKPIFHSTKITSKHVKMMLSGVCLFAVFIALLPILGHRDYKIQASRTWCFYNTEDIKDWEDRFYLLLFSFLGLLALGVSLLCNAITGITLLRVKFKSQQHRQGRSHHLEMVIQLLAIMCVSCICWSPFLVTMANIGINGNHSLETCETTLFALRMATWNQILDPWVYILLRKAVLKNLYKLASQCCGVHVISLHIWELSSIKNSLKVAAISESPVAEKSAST
Chain of S1P1 (P21453 whole entry): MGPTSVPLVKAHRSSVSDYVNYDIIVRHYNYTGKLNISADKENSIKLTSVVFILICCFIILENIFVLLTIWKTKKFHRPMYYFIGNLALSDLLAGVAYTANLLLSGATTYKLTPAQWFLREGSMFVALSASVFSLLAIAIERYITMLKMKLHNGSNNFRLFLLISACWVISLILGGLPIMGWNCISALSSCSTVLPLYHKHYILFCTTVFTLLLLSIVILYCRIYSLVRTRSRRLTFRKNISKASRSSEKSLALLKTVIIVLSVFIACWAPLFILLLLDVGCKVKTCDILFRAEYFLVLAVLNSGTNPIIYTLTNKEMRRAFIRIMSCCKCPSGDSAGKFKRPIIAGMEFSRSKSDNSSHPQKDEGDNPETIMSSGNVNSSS
Chain of GPR183 (P32249 whole entry): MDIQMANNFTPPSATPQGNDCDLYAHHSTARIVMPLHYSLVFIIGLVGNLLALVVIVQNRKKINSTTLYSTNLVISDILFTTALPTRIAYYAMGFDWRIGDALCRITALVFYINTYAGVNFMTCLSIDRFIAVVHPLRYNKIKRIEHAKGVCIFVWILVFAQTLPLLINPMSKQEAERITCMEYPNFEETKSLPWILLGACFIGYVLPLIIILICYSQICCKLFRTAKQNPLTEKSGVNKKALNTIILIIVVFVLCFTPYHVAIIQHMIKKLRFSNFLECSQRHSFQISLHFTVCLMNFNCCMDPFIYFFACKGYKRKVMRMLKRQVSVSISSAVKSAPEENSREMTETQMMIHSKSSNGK

C[C@H](CCCC(C)(C)O)[C@H]1CC[C@H]2[C@@H]3[C@H](O)C=C4C[C@@H](O)CC[C@]4(C)[C@H]3CC[C@]12C [7α-25 dihydroxycholesterol]
Settings	Emax, GPR183 [2]	pEC50, GPR183 [1]
pathway (G protein / arrestin sensor): G12	53.4	8.98
pathway (G protein / arrestin sensor): G15	38.1	8.51
pathway (G protein / arrestin sensor): Gi1	134	9.74
pathway (G protein / arrestin sensor): Gi2	144	9.75
pathway (G protein / arrestin sensor): GoA	166	9.16
pathway (G protein / arrestin sensor): GoB	190	9.75
pathway (G protein / arrestin sensor): Gz	123	9.16
pathway (G protein / arrestin sensor): βarr1/GRK2	1120	8.95
pathway (G protein / arrestin sensor): βarr2	502	8.23
pathway (G protein / arrestin sensor): βarr2/GRK2	573	8.8

CCCCCCCC/C=C\CCCCCCCC(=O)OCC(O)COP(=O)(O)O (configuration not stated) [O-LPA]
LPA1
Settings	pEC50
pathway (G protein / arrestin sensor): G11	6.92
pathway (G protein / arrestin sensor): G13	8.35
pathway (G protein / arrestin sensor): G14	5.63
pathway (G protein / arrestin sensor): G15	6.31
pathway (G protein / arrestin sensor): Gi1	9.2
pathway (G protein / arrestin sensor): GoA	8.89
pathway (G protein / arrestin sensor): Gq	7.51
pathway (G protein / arrestin sensor): βarr1/GRK2	7.53
pathway (G protein / arrestin sensor): βarr2	6.58
pathway (G protein / arrestin sensor): βarr2/GRK2	7.46

CCCCC[C@H](O)/C=C/[C@H]1C(=O)C[C@H](O)[C@@H]1C/C=C\CCCC(=O)O [PGD2]
Settings	Emax, FP [4]	pEC50, FP [3]
pathway (G protein / arrestin sensor): G11	459	8.66
pathway (G protein / arrestin sensor): G12	104	8.38
pathway (G protein / arrestin sensor): G13	183	8.78
pathway (G protein / arrestin sensor): G14	578	8.17
pathway (G protein / arrestin sensor): G15	437	8.88
pathway (G protein / arrestin sensor): GoA	84.8	6.92
pathway (G protein / arrestin sensor): GoB	114	6.99
pathway (G protein / arrestin sensor): Gq	306	8.73
pathway (G protein / arrestin sensor): Gz	122	7.46

CCCCC[C@H](O)/C=C/[C@H]1[C@H](O)CC(=O)[C@@H]1C/C=C\CCCC(=O)O [PGE2]
EP1
Settings	pEC50
pathway (G protein / arrestin sensor): G11	8.27
pathway (G protein / arrestin sensor): G12	9.51
pathway (G protein / arrestin sensor): G13	8.04
pathway (G protein / arrestin sensor): G14	7.95
pathway (G protein / arrestin sensor): G15	9.29
pathway (G protein / arrestin sensor): Gi1	6.43
pathway (G protein / arrestin sensor): Gi2	7.37
pathway (G protein / arrestin sensor): GoA	8
pathway (G protein / arrestin sensor): GoB	7.46
pathway (G protein / arrestin sensor): Gq	8.32
pathway (G protein / arrestin sensor): βarr2	7.41

CC[C@H](C)[C@H](NC(=O)[C@H](CC(C)C)NC(=O)[C@@H](N)CO)C(=O)NCC(=O)N[C@@H](CCCCN)C(=O)N[C@H](C(N)=O)C(C)C [SLIGKV-NH2]
Settings	Emax, PAR2 [6]	pEC50, PAR2 [5]
pathway (G protein / arrestin sensor): G11	483	5.96
pathway (G protein / arrestin sensor): G12	41.5	7.79
pathway (G protein / arrestin sensor): G13	235	6.87
pathway (G protein / arrestin sensor): G14	419	5.46
pathway (G protein / arrestin sensor): G15	498	5.81
pathway (G protein / arrestin sensor): Gi1	621	5.32
pathway (G protein / arrestin sensor): Gi2	326	5.65
pathway (G protein / arrestin sensor): GoA	217	5.85
pathway (G protein / arrestin sensor): GoB	320	6.32
pathway (G protein / arrestin sensor): Gq	304	5.18
pathway (G protein / arrestin sensor): Gz	188	6.23
pathway (G protein / arrestin sensor): βarr1/GRK2	861	4.65
pathway (G protein / arrestin sensor): βarr2	766	4.63
pathway (G protein / arrestin sensor): βarr2/GRK2	489	4.75

CCCCCCCCCCCCC/C=C/[C@@H](O)[C@@H](N)COP(=O)(O)O [Sphingosine 1-phosphate]
Settings	Emax, S1P1 [8]	pEC50, S1P1 [7]
pathway (G protein / arrestin sensor): G12	92	7.18
pathway (G protein / arrestin sensor): G13	175	6.86
pathway (G protein / arrestin sensor): G15	375	6.21
pathway (G protein / arrestin sensor): Gi1	132	8.15
pathway (G protein / arrestin sensor): Gi2	99.8	7.95
pathway (G protein / arrestin sensor): GoA	68.5	7.75
pathway (G protein / arrestin sensor): GoB	59.2	8.16
pathway (G protein / arrestin sensor): βarr1/GRK2	477	7.27
pathway (G protein / arrestin sensor): βarr2	227	6.83
pathway (G protein / arrestin sensor): βarr2/GRK2	557	7.46

Source: the supplement of paper PMC9005190
